Reference: ChEMBL document CHEMBL1201862, “PubChem BioAssay data set” (2004)
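Results reflect a 48-hour exposure of cells in 96-well plates to compound at five concentrations. GI50 is the concentration that inhibits growth by half.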 The source made the active and inactive calls. Rule as the data show it: active = GI50 up to about 1.1 µM and inactive = higher.

What was measured:
Test in all cases: growth of human tumour cells (NCI), 48 h
CCRF-CEM = system: CCRF-CEM
DLD-1 = system: DLD-1
HL-60 = system: HL-60
HOP-18 = system: HOP-18
KM-20L2 = system: KM-20L2
LXFL 529 = system: LXFL 529
RPMI-8226 = system: RPMI-8226
RXF 631 = system: RXF 631
SK-MEL-28 = system: SK-MEL-28
786-0 = system: 786-0
A498 = system: A498
A549 = system: A549
ACHN = system: ACHN
BT-549 = system: BT-549
CAKI-1 = system: CAKI-1
COLO 205 = system: COLO 205
DMS-114 = system: DMS-114
DMS-273 = system: DMS-273
EKVX = system: EKVX
HCC 2998 = system: HCC 2998
HCT-116 = system: HCT-116
HCT-15 = system: HCT-15
HOP-62 = system: HOP-62
HOP-92 = system: HOP-92
HT-29 = system: HT-29
Hs-578T = system: Hs-578T
IGROV-1 = system: IGROV-1
K562 = system: K562
KM12 = system: KM12
LOX IMVI = system: LOX IMVI
M14 = system: M14
M19-MEL = system: M19-MEL
MCF7 = system: MCF7
MDA-MB-231 = system: MDA-MB-231
MDA-MB-435 = system: MDA-MB-435
MDA-N = system: MDA-N
MOLT-4 = system: MOLT-4
Malme-3M = system: Malme-3M
NCI-H226 = system: NCI-H226
NCI-H23 = system: NCI-H23
NCI-H460 = system: NCI-H460
NCI-H522 = system: NCI-H522
NCI/ADR-RES = system: NCI/ADR-RES
OVCAR-3 = system: OVCAR-3
OVCAR-4 = system: OVCAR-4
OVCAR-5 = system: OVCAR-5
OVCAR-8 = system: OVCAR-8
PC-3 = system: PC-3
RXF 393 = system: RXF 393
SF-268 = system: SF-268
SF-295 = system: SF-295
SF-539 = system: SF-539
SK-MEL-2 = system: SK-MEL-2
SK-MEL-5 = system: SK-MEL-5
SK-OV-3 = system: SK-OV-3
SN12C = system: SN12C
SNB-19 = system: SNB-19
SNB-75 = system: SNB-75
SNB-78 = system: SNB-78
SR = system: SR
SW-620 = system: SW-620
T47D = system: T47D
TK-10 = system: TK-10
U-251 = system: U-251
UACC-257 = system: UACC-257
UACC-62 = system: UACC-62
UO-31 = system: UO-31

CC[C@@]1(O)C[C@H](OC2CC(N(C)C)C(OC3CC(O)C(OC4CCC(=O)C(C)O4)C(C)O3)C(C)O2)c2c(cc3c(c2O)C(=O)c2c(O)cccc2C3=O)[C@H]1C(=O)OC (stereo partly specified)
GI50 (CCRF-CEM): 0.0229 µM (active) | GI50 (DLD-1): 0.0238 µM (active) | GI50 (HL-60): 0.0231 µM (active) | GI50 (HOP-18): 0.0458 µM (active) | GI50 (KM-20L2): 0.0247 µM (active) | GI50 (LXFL 529): 0.00776 µM (active) | GI50 (RPMI-8226): 0.0243 µM (active) | GI50 (RXF 631): 0.00711 µM (active) | GI50 (SK-MEL-28): 0.0443 µM (active)

CCSc1nc(COC(=O)NC)c(COC(=O)NC)n1C
GI50 (786-0): 99.5 µM (inactive) | GI50 (A498): > 67.9 µM (inactive) | GI50 (A549): > 97.5 µM (inactive) | GI50 (ACHN): 16.6 µM (inactive) | GI50 (BT-549): > 100 µM (inactive) | GI50 (CAKI-1): 49.5 µM (inactive) | GI50 (CCRF-CEM): 54 µM (inactive) | GI50 (COLO 205): > 74.3 µM (inactive) | GI50 (DLD-1): > 92.3 µM (inactive) | GI50 (DMS-114): 46.6 µM (inactive) | GI50 (DMS-273): > 94.4 µM (inactive) | GI50 (EKVX): > 100 µM (inactive) | GI50 (HCC 2998): > 85.7 µM (inactive) | GI50 (HCT-116): > 100 µM (inactive) | GI50 (HCT-15): > 100 µM | GI50 (HL-60): 82.6 µM (inactive) | GI50 (HOP-18): > 100 µM (inactive) | GI50 (HOP-62): 99.3 µM (inactive) | GI50 (HOP-92): > 80.5 µM (inactive) | GI50 (HT-29): > 100 µM (inactive) | GI50 (Hs-578T): > 100 µM (inactive) | GI50 (IGROV-1): > 79.8 µM (inactive) | GI50 (K562): > 68.1 µM (inactive) | GI50 (KM-20L2): > 100 µM (inactive) | GI50 (KM12): > 100 µM (inactive) | GI50 (LOX IMVI): > 97.1 µM (inactive) | GI50 (LXFL 529): > 37.2 µM (inactive) | GI50 (M14): > 64.1 µM (inactive) | GI50 (M19-MEL): > 63.5 µM (inactive) | GI50 (MCF7): > 70.5 µM (inactive) | GI50 (MDA-MB-231): > 100 µM (inactive) | GI50 (MDA-MB-435): > 100 µM (inactive) | GI50 (MDA-N): > 100 µM (inactive) | GI50 (MOLT-4): 43.4 µM (inactive) | GI50 (Malme-3M): > 100 µM (inactive) | GI50 (NCI-H226): > 100 µM (inactive) | GI50 (NCI-H23): 99.5 µM (inactive) | GI50 (NCI-H460): 73.1 µM (inactive) | GI50 (NCI-H522): 40.6 µM (inactive) | GI50 (NCI/ADR-RES): > 100 µM (inactive) | GI50 (OVCAR-3): > 100 µM (inactive) | GI50 (OVCAR-4): > 75.7 µM (inactive) | GI50 (OVCAR-5): > 100 µM (inactive) | GI50 (OVCAR-8): > 100 µM (inactive) | GI50 (PC-3): > 82 µM (inactive) | GI50 (RPMI-8226): > 97.9 µM (inactive) | GI50 (RXF 393): 42.8 µM (inactive) | GI50 (RXF 631): > 100 µM (inactive) | GI50 (SF-268): 70.1 µM (inactive) | GI50 (SF-295): > 100 µM (inactive) | GI50 (SF-539): 98.9 µM (inactive) | GI50 (SK-MEL-28): > 100 µM (inactive) | GI50 (SK-MEL-2): > 89.7 µM (inactive) | GI50 (SK-MEL-5): > 100 µM (inactive) | GI50 (SK-OV-3): 50.7 µM (inactive) | GI50 (SN12C): > 100 µM (inactive) | GI50 (SNB-19): > 100 µM (inactive) | GI50 (SNB-75): > 100 µM (inactive) | GI50 (SNB-78): > 70.1 µM (inactive) | GI50 (SR): 51.3 µM (inactive) | GI50 (SW-620): > 100 µM (inactive) | GI50 (T47D): > 100 µM (inactive) | GI50 (TK-10): > 100 µM (inactive) | GI50 (U-251): > 84.9 µM (inactive) | GI50 (UACC-257): > 100 µM (inactive) | GI50 (UACC-62): 34.1 µM (inactive) | GI50 (UO-31): > 95.9 µM (inactive)
